Legend:
Format in all cases: physicochemical
[1] = Critical micelle concentration
Procedure: (§1) Certain surfactant properties and performance metrics of synthesized surfactants structures according to General Structure 1 (GS1), including several exemplary surfactant blends prepared according to the methods disclosed previously herein, were measured. […] For example, the α-OMFS-12-1/O surfactant with a sulfonate on the surfactant's alkyl chain provides faster wetting kinetics, as compared to the ring sulfonate 4-OMFS-12-1/O which has slower fabric wetting kinetics yet generates more foam in high shear conditions, or the disulfonate surfactant sulfonated on both the ring and alkyl chain (4,α-OMFS-12-1/O) which has slower fabric wetting and generates less foam than either of the aforementioned monosulfonates surfactants, yet has a higher solubility that can be helpful in building product formulations. Accordingly, these differing performance metrics can be leveraged by selecting the particular disclosed surfactant structure corresponding to the performance metrics useful in a specific application of the surfactant structure.

[2] = Surface tension at critical micelle concentration; details: at CMC
Procedure: as §1

[3] = Solubility in deionized water; details: deionized water at 20° C.
Procedure: Certain surfactant properties and performance metrics of synthesized surfactants structures according to General Structure 1 (GS1), including several exemplary surfactant blends prepared according to the methods disclosed previously herein, were measured.

[4] = Krafft point (temperature below which the surfactant forms a solid precipitate)
Procedure: as §1

| Structure (SMILES) | CMC (critical micelle concentration) [1] | Surface Tension at critical micelle concentration [2] | Solubility [3] | Krafft Point [4] |
| --- | --- | --- | --- | --- |
| CCCCCCCCCCCCC(C(=O)c1cc(S(=O)(=O)[O-])c(C)o1)S(=O)(=O)[O-].[Na+].[Na+] (stereo not drawn) [Na^+ 4,α-OMFS-14-1/0] |  |  | 600 mg/mL | <0 °C |
| CCCCCCCCCCC(C(=O)c1ccc(C)o1)S(=O)(=O)[O-].[Na+] (stereo not drawn) [Na^+ α-OMFS-12-1/0] |  |  | 800 mg/mL | <0 °C |
| CCCCCCCCCCCC(=O)c1cc(S(=O)(=O)[O-])c(C)o1.[Na+] [Na^+ 4-OMFS-12-1/0] | 1480 ppm | 42 mN/m | 800 mg/mL | <0 °C |
| CCCCCCCCCCCCCCCCC(C(=O)c1cc(S(=O)(=O)[O-])c(C)o1)S(=O)(=O)[O-].[Na+].[Na+] (stereo not drawn) [Na^+ 4,α-OMFS-18-1/0] |  |  |  | <0 °C |

Next, values leading:

| CMC (critical micelle concentration) [1] | Surface Tension at critical micelle concentration [2] | Solubility [3] | Krafft Point [4] | Structure (SMILES) |
| --- | --- | --- | --- | --- |
| 3545 ppm | 39 mN/m | 500 mg/mL | <0 °C | CCCCCCCCCCC(C(=O)c1cc(S(=O)(=O)O)c(C)o1)S(=O)(=O)O.N.N (stereo not drawn) [NH4^+4,α-OMFS-12-1/0] |
|  |  | 900 mg/mL | <0 °C | CCCCCCCCCCC(C(=O)c1cc(S(=O)(=O)[O-])c(C)o1)S(=O)(=O)[O-].[Na+].[Na+] (stereo not drawn) [Na^+ 4,α-OMFS-12-1/0] |
